Measurements taken from publication PMC8091729 (Bioorganic & Medicinal Chemistry Letters, 2021).

Key:
[1] = system: COVID-19; conditions: patients with COVID-19; cited from earlier work
[2] = system: SARS-CoV-2; experiment: Image-based antiviral assay; assay type: cell-based; conditions: CC50/EC50

SMILES | benefit in clinical trials [1] | selectivity index [2]
CCC(CC)COC(=O)[C@H](C)N[P@](=O)(OC[C@H]1O[C@@](C#N)(c2ccc3c(N)ncnn23)[C@H](O)[C@@H]1O)Oc1ccccc1 [Remdesivir] | 68% | –
O=C(Cn1c2ccccc2n2c(=O)cc(-c3ccc(Cl)cc3)nc12)Nc1ccc(F)cc1F [Compound 7] | – | more than 10
